In patent US20050014706A1, “Method of treating tuberculosis” (priority 2003, published 2005):
Values after ≈ are worked out from the molar mass of the structure shown. Where two headings read alike, the source gives them in different places.

Columns and labels:
[1] = system: M. tuberculosis H37Rv; test: MIC vs. M. tuberculosis H37Rv, microplate Alamar Blue assay (MABA); format: cell-based; conditions: for enhancement in potency of macrolide over counterpart ketolide: vs. telithromycin, RU004, RU56006 respectively; for MIC / activity vs. M. tuberculosis in words: in vitro
[2] = system: tubercle bacillus; conditions: literature; cited from earlier work
[3] = system: tubercle bacillus; conditions: literature (Luna-Herrera 1995; Truffot-Pernot 1995); cited from earlier work
[4] = system: VERO cells; test: Cytotoxicity against VERO cells (MTS, 72 hours); conditions: for IC50: read-out: Vero IC50 (toxicity); for toxicity / cytotoxicity in words: in vitro study
[5] = system: J774.1 macrophage cell line; test: Cytotoxicity against J774.1 macrophage cell line; format: cell-based, murine; conditions: for IC50: Mus musculus, J774.1
[6] = system: VERO cells
[7] = system: M. tuberculosis H37Rv; conditions: positive quality control, MABA; cited from earlier work
[8] = system: M. tuberculosis Erdman; format: in vivo, BALB/c mice; conditions: for activity against M. tuberculosis in the acute phase of infection: 100 and 200 mg/kg qd (RU60887 100 mg/kg only)
[9] = Overt toxicity in mice, escalating 5-day cycles; format: in vivo, Balb/C mice; conditions: once daily 5-day cycles, sequentially 200, 300, 400, 500 mg/kg
Procedure: Prior to assessing in vivo efficacy, RU66252 and RU69874 were administered to pairs of female Balb/C mice once daily for 5-day cycles, and observed for overt signs of toxicity (e.g., weight loss, ruffled fur, and huddling), after which the mice were rested for 1 or 2 days. Then the dosage was increased for another 5-day cycle. Overall, the same mice received sequentially for 5 days: 200, 300, 400, and 500 mg/kg.

[10] = system: M. tuberculosis; test: Activity against M. tuberculosis in mice (follow-up, dose response); format: in vivo
[11] = Mycobacterium tuberculosis, H37RV, Table 1a, 11,12-carbamate derivatives, read-out: Anti-TB Activity MIC
[12] = Mycobacterium tuberculosis, H37RV, read-out: minimum inhibitory concentration (MIC) against M. tuberculosis
[13] = Table 1a, J774 cells, read-out: J774 IC50 (toxicity)

CC[C@H]1OC(=O)[C@H](C)[C@@H](O[C@H]2C[C@@](C)(OC)[C@@H](O)[C@H](C)O2)[C@H](C)[C@@H](O[C@@H]2O[C@H](C)C[C@H](N(C)C)[C@H]2O)[C@](C)(OC)C[C@@H](C)C(=O)[C@H](C)[C@@H](O)[C@]1(C)O [Clarithromycin, reference compound]
MIC ([1]; Table 2a, 11,12-diols, read-out: Anti-TB Activity MIC): 8 µM (≈ 5.98 µg/mL)
enhancement in potency of macrolide over counterpart ketolide [1]: 16 fold
MIC against the tubercle bacillus [2]: 4 to 64 µg/mL
activity in mouse models [3]: marginal and nil
IC50 ([4]; Table 2a, Vero cells): 41 µM

CC[C@H]1OC(=O)[C@@](C)(F)C(=O)[C@H](C)[C@@H](O[C@@H]2O[C@H](C)C[C@H](N(C)C)[C@H]2O)[C@](C)(OCC#Cc2cc(-c3cnc4ccccc4c3)no2)C[C@@H](C)C(=O)[C@H](C)[C@H]2NC(=O)O[C@@]21C [Compound A323348]
MIC [1, 11]: 0.38 µM (≈ 0.323 µg/mL)
MIC [1, 12]: 0.38 µM (≈ 0.323 µg/mL)
MIC / activity vs. M. tuberculosis in words [1]: very low
IC50 [5, 13]: 15.3 µM
toxicity / cytotoxicity in words [6]: comparable to clarithromycin
IC50 ([4]; Chlorocebus sabaeus, Vero): 24.3 µM

NNC(=O)c1ccncc1 [Isoniazid]
expected MIC range of quality control compound [7]: 0.025 to 0.1 µg/mL

CC[C@H]1OC(=O)[C@H](C)C(OC2CC(C)(OC)[C@@H](O)[C@H](C)O2)[C@H](C)[C@@H](O[C@@H]2O[C@H](C)C[C@H](N(C)C)[C@H]2O)[C@](C)(OC)C[C@@H](C)C(=O)[C@H](C)[C@H]2N(NCCCc3ccnc4ccccc34)C(=O)O[C@]12C (stereo partly drawn) [RU66252]
MIC ([1]; Table 1a, 11,12-carbamate derivatives, read-out: Anti-TB Activity MIC): 0.25 µM (≈ 0.239 µg/mL)
MIC ([1]; Table 3, parallel-synthesis carbazate library products): 9 µM (≈ 8.61 µg/mL)
MIC vs. M. tuberculosis ([1]; follow-up assays): about 9 μM
MIC / activity vs. M. tuberculosis in words [1]: very low
MIC ([1]; read-out: minimum inhibitory concentration (MIC) against M. tuberculosis): 0.25 µM (≈ 0.239 µg/mL)
enhancement in potency of macrolide over counterpart ketolide [1]: 16 fold
colonies from treated mouse lung homogenates ([8]; 10^−2 dilution plates): no colonies
activity against M. tuberculosis in the acute phase of infection [8]: dose-dependent activity
overt signs of toxicity (weight loss, ruffled fur, huddling) [9]: No signs of overt toxicity
M. tuberculosis inhibition in mice ([10]; 150 mg/kg and 200 mg/kg): significant
dose response in mice ([10]; between 50 and 200 mg/kg): shows a dose response
activity against M. tuberculosis in mice ([10]; mice): active
toxicity / cytotoxicity in words [4]: comparable to clarithromycin

CC[C@H]1OC(=O)[C@H](C)[C@@H](O[C@H]2C[C@@](C)(OC)[C@@H](O)[C@H](C)O2)[C@H](C)[C@@H](O[C@@H]2O[C@H](C)C[C@H](N(C)C)[C@H]2O)[C@](C)(OC)C[C@@H](C)C(=O)[C@H](C)[C@H]2N(CCCCn3cnc(-c4cccnc4)c3)C(=O)O[C@]12C [RU69874]
MIC [1, 11]: 0.38 µM (≈ 0.369 µg/mL)
MIC [1, 12]: 0.38 µM (≈ 0.369 µg/mL)
MIC / activity vs. M. tuberculosis in words [1]: very low
enhancement in potency of macrolide over counterpart ketolide [1]: 126 fold
selectivity index (SI) ([5]; J774 cells): 154
IC50 [5, 13]: 58.6 µM
IC50 ([5]; based on J774 cells, read-out: toxicity): 59 µM
activity against M. tuberculosis in the acute phase of infection [8]: less activity
overt signs of toxicity (weight loss, ruffled fur, huddling) [9]: No signs of overt toxicity
IC50 ([4]; Chlorocebus sabaeus, Vero): 27 µM
toxicity / cytotoxicity in words [4]: comparable to clarithromycin
